The target in data set [1] is T1, recombinantly produced D2 receptors from human (COS cells) (Homo sapiens, UniProt P14416).
T1 construct: expressed in transfected cells; host or cells: COS cells
Description: biochemical. In kind it is binding. To be noted: COS cell pellets, 0.5 nM 3H-YM 09151-2. On the procedure: (§1) Pellets of COS cells containing recombinantly produced D2 or D4 receptors from human are used for the assays. The sample is homogenized in 100 volumes (w/vol) of 0.05 M Tris HCl buffer at 4° C. and pH 7.4. The sample is then centrifuged at 30,000×g and resuspended and rehomogenized. The sample is then centrifuged as described and the final tissue sample is frozen until use. The tissue is resuspended […] (wt/vol) in 0.05 M Tris HCl buffer containing 100 mM NaCl.

Data set [2] has as its target T2, recombinantly produced D4 receptors from human (COS cells) (Homo sapiens, UniProt P21917).
T2 construct: expressed in transfected cells; host or cells: COS cells
T2 sequence (P21917 1-419): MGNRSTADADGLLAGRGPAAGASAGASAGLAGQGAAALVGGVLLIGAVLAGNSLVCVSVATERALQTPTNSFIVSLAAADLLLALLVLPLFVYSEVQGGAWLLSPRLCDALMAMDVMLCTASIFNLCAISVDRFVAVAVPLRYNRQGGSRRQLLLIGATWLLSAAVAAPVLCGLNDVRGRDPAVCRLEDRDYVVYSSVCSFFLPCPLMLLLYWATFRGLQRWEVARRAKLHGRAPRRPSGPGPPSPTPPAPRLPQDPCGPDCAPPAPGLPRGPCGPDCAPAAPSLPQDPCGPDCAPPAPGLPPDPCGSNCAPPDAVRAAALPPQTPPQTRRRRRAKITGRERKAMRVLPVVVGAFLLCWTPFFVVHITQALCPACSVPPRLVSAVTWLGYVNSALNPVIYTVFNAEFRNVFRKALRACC
Description: Determination of D4 receptor binding activity (3H-YM 09151-2 displacement). As for the experimental part:
as §1

These results are taken from patent US6544996B2, “1-phenyl-4-(1-[2-aryl]cyclopropyl) methylpiperazines: dopamine receptor ligands” (Neurogen Corporation, priority 1999, dated 2003).

T1 sequence (P14416 whole entry): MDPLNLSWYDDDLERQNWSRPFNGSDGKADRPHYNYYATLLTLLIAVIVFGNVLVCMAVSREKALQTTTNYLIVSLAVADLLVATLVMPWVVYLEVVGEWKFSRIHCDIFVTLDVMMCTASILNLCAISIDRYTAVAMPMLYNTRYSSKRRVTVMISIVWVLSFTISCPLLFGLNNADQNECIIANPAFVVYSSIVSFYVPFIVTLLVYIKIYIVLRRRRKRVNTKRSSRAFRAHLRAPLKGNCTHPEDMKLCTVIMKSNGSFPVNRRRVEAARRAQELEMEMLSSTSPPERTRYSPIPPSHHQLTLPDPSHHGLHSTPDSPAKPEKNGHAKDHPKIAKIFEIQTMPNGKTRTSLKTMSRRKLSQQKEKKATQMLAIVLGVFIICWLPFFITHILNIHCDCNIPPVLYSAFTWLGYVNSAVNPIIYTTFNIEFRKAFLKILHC

As to `Br.Cc1cc(Br)ccc1N1CCN(C[C@@H]2C[C@H]2c2ccccc2)CC1` (relative stereo), the melting point – broadly, the temperature of the solid-liquid transition – was 182 to 183 °C.

`Clc1ccc([C@H]2C[C@@H]2CN2CCN(c3ccc(Cl)cc3)CC2)cc1` (relative stereo) [Compound 3, 1-(4-chlorophenyl)-4-(trans-2-[4-chlorophenyl]cyclopropyl)methylpiperazine]: the inhibitory constant (Ki) (usually a dissociation constant, usually derived from enzyme kinetics or from competition with a known ligand) stood at 523 nM in data set [1] and 8 nM in data set [2].

With `Br.Cc1cc(N)ccc1N1CCN(C[C@@H]2C[C@H]2c2ccccc2)CC1` (relative stereo), the melting point is 284 to 285 °C.

Compound `Br.Cc1cc([N+](=O)[O-])ccc1N1CCN(C[C@@H]2C[C@H]2c2ccccc2)CC1` (relative stereo) gave a melting point of 197 to 198 °C.
